*1 amine or outer side, *2 acyl side, *3 side chain or, on linkers, in order; H or OH if unused. Where a SMILES comes first, the peptide text is derived from it. Side-chain parts run from the residue outwards. [ ]: non-standard residue; d: D form. The star is where a group is joined. C18 diacid = O=C(O)CCCCCCCCCCCCCCCCC(=O)*; C16 diacid = O=C(O)CCCCCCCCCCCCCCC(=O)*; γGlu = O=C(O)[C@H](CCC(=O)[*:2])N[*:1]; Api = NC1(C(=O)O)CCNCC1; Abu = CC[C@H](N)C(=O)O; Pentanoyl = CCCCC(=O)*; Aib = CC(C)(N)C(=O)O
Columns and labels:
[1] = In vitro plasma stability, minipig plasma; format: in vitro ADME; parameters: remaining at 2 h: dose or concentration left out as unconfirmed; conditions: pig, plasma; Minipig PLM, 37° C.
[2] = Chemical stability in buffer (pH 7.4 / pH 4.5), % purity loss; format: physicochemical; conditions: 40° C. vs 5° C., 14 or 28 days; for Buffer stability pH 4.5 % purity loss: 100 mM acetate buffer pH 4.5; for Buffer stability pH 7.4 % purity loss: 100 mM phosphate buffer pH 7.4
Procedure, shortened: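 Compounds dissolved at 10 mg/mL target in 100 mM phosphate (pH 7.4) or 100 mM acetate (pH 4.5) buffer for 1 h at room temperature, then centrifuged. Diluted supernatant stored at 5 °C or 40 °C for 14 or 28 days; % purity loss by LC-UV.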

CFR1R receptor = molecular target: T1, CFR1R receptor (Homo sapiens, UniProt P34998); assay: Activity at anti-target CFR1R receptor, cAMP assay in CRF1R-overexpression CHO-K1 cells; format: cell-based; conditions: 100% = Sauvagine at 100 nM; for EC50: cAMP
T1 construct: host or cells: CHO-K1 (clone 2)
T1 sequence (P34998 24-415): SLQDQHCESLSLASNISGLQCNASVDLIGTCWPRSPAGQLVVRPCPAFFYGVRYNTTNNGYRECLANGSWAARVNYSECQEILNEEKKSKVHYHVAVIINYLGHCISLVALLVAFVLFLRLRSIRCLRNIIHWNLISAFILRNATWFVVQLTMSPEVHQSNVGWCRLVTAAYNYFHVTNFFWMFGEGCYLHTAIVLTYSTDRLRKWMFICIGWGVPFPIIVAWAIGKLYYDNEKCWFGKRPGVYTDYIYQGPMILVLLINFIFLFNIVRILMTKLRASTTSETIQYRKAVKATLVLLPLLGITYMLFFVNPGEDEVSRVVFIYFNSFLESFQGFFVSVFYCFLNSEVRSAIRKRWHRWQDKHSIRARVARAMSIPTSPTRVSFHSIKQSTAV
Procedure, shortened: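 cAMP readout in CRF1R-overexpressing CHO-K1 cells (clone 2), run as for the TeloHAEC assay at 4000 cells/well final. Cells came from cryopreserved banks. Sauvagine at 100 nM defined 100% activation.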

Sprague Dawley rats = assay: Effect on systolic blood pressure, telemetry in Sprague Dawley rats; format: in vivo, rat; conditions: 0.1 mg/kg SC; for Systolic blood pressure (Mean) % change from baseline, 8 h / Systolic blood pressure (Mean) % change from baseline, 12 h / Systolic blood pressure (Mean) % change from baseline, 24 h: n=2; for Duration of action: last time point with an effect on BP still observed
Procedure, shortened: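 Sprague Dawley rats with abdominal-aorta telemetry catheters, recovered ≥10 days, received 0.1 mg/kg SC of compound or vehicle. Systolic pressure recorded 1 h pre-dose as baseline, then continuously up to 48 hours, expressed as % change from baseline; duration of action is last time point with a BP effect (n=2).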

[3] = In vitro plasma stability, rat plasma; format: in vitro ADME; parameters: remaining at 2 h: dose or concentration left out as unconfirmed; conditions: male, Sprague Dawley, plasma; Rat PLM, 37° C.
Description: (§1) In vitro plasma metabolic stability was studied in male Sprague Dawley rats and human. Test compounds were incubated at 3 M for 2 hours at 37° C. At each time point (0, 0.25, 1 and 2 h), samples were prepared for analysis by means of a single step protein precipitation technique by adding 150 μL of ethanol, 0.1% formic acid to 50 μL aliquots of plasma. Samples were mixed by vortex for homogeneity and then subjected to centrifugation at 14000 rpm for 15 min. The supernatant (100 μL) was collected, diluted with 100 μL of water, 0.1% formic acid and analyzed by LC-HRMS (TripleTOF 6600+, AB Sciex). For each test compound, the area ratios at each time point were compared to the 0 h area ratio and converted to a percentage remaining.

[4] = In vitro plasma stability, human plasma; format: in vitro ADME; parameters: dose or concentration left out as unconfirmed; conditions: Human PLM, 37° C.
Description: as §1

human CRF2a receptor = molecular target: T2, human CRF2a receptor (Homo sapiens, UniProt Q13324); assay: Activity at human CRF2a receptor, cAMP functional assay in TeloHEAC cells; format: cell-based; conditions: TeloHEAC cells stably expressing human CRF2a receptor, relative to urocortin 2 (100 nM = 100%)
T2 construct: expressed in transfected cells; host or cells: TeloHEAC cells
T2 sequence (Q13324 1-411): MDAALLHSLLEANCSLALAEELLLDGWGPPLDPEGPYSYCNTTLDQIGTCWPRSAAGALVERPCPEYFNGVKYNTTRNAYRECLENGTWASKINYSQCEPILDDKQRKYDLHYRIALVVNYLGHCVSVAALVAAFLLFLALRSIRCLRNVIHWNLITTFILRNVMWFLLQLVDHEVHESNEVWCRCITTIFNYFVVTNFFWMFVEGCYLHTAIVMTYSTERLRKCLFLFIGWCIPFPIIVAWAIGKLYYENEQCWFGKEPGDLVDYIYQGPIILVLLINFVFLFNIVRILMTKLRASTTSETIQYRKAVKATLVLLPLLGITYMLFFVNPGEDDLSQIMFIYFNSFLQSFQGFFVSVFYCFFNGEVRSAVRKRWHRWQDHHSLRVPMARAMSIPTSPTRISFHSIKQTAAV
Procedure, shortened: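 TeloHEAC cells stably expressing human CRF2a (10000 cells/well, suspended in HBSS/20 mM HEPES with 2 mM IBMX) were exposed to compounds for 30 min at 37 °C. cAMP was read as the 665/620 nm fluorescence ratio after 1 h at room temperature. EC50 was derived relative to 100 nM urocortin 2, set as 100%.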

[5] = In vitro subcutaneous tissue supernatant (SCts) stability and metabolite identification, rat; format: in vitro ADME; parameters: remaining at 2 h: dose or concentration left out as unconfirmed; conditions: male, Sprague Dawley; rat subcutaneous tissue supernatant (SCts), 37° C, 2 h

| remaining at 2 h [1] | Buffer stability pH 4.5 % purity loss [2] | Buffer stability pH 7.4 % purity loss [2] | Emax (% I) (CFR1R receptor) | EC50 (CFR1R receptor) | remaining at 2 h [3] | remaining at 2 h [4] | EC50 (human CRF2a receptor) | remaining at 2 h [5] | Compound | Systolic blood pressure (Mean) % change from baseline, 8 h (Sprague Dawley rats) | Systolic blood pressure (Mean) % change from baseline, 12 h (Sprague Dawley rats) | Systolic blood pressure (Mean) % change from baseline, 24 h (Sprague Dawley rats) | Duration of action (Sprague Dawley rats) |
| --- | --- | --- | --- | --- | --- | --- | --- | --- | --- | --- | --- | --- | --- |
| 97% | 0/0 ^ % | 0/0 ^ % | 9 % I | > 250000 pM | 73% | 102% | 120 pM | – | CC[C@H](NC(=O)[C@H](CC(N)=O)NC(=O)[C@@H](NC(=O)[C@H](CCC(=O)O)NC(=O)[C@H](C)NC(=O)[C@H](CCC(N)=O)NC(=O)[C@H](CCC(=O)O)NC(=O)[C@H](CCCNC(=N)N)NC(=O)[C@H](CCC(N)=O)NC(=O)[C@H](CCCCN)NC(=O)[C@H](CCCCN)NC(=O)[C@H](CCC(N)=O)NC(=O)[C@H](CCCCN)NC(=O)[C@H](CCC(=O)O)NC(=O)[C@H](CCC(N)=O)NC(=O)[C@H](CCC(=O)O)NC(=O)[C@H](CC(C)C)NC(=O)[C@H](CC(C)C)NC(=O)[C@@H](NC(=O)[C@H](CCCCN)NC(=O)[C@H](CCCCNC(=O)CC[C@H](NC(=O)CCCCCCCCCCCCCCC(=O)O)C(=O)O)NC(=O)[C@H](CC(C)C)NC(=O)[C@H](CCCCN)NC(=O)[C@@H](NC(=O)[C@@H]1CCCN1C(=O)[C@H](NC(=O)[C@H](CC(=O)O)NC(=O)[C@H](CC(C)C)NC(=O)[C@H](CO)NC(=O)[C@H](CC(C)C)NC(=O)[C@@H](NC(=O)[C@@H](NC(C)=O)[C@@H](C)CC)C(C)C)C(C)C)[C@@H](C)CC)[C@@H](C)CC)[C@@H](C)O)C(=O)N[C@@H](CCC(N)=O)C(=O)N[C@H](C(=O)N[C@@H](CC(C)C)C(=O)N[C@@H](C)C(=O)N[C@@H](CCC(N)=O)C(=O)N[C@H](C(N)=O)C(C)C)[C@@H](C)CC [compound 51] (Ac-IVLSLD[dV]PIKLK([γGlu-C16 diacid])KILLEQEKQKKQREQAETN[Abu]QILAQV-NH2) | −27% | −19% | −1% | 24 h |
| 81% | 0/0 ^ % | 0/0 ^ % | 24 % I | > 250000 pM | 96% | 104% | 390 pM | – | CC[C@H](C)[C@H](NC(C)=O)C(=O)N[C@H](C(=O)N[C@@H](CC(C)C)C(=O)N[C@@H](CO)C(=O)N[C@@H](CC(C)C)C(=O)N[C@@H](CC(=O)O)C(=O)N[C@@H](C(=O)N1CCC[C@H]1C(=O)N[C@H](C(=O)N[C@@H](CCCCN)C(=O)N[C@@H](CC(C)C)C(=O)N[C@@H](CCCCNC(=O)CC[C@H](NC(=O)CCCCCCCCCCCCCCC(=O)O)C(=O)O)C(=O)N[C@@H](CCCCN)C(=O)N[C@H](C(=O)N[C@@H](CC(C)C)C(=O)N[C@@H](CC(C)C)C(=O)N[C@@H](CCC(=O)O)C(=O)N[C@@H](CCC(N)=O)C(=O)N[C@@H](CCC(=O)O)C(=O)N[C@@H](CCCCN)C(=O)N[C@@H](CCC(N)=O)C(=O)N[C@@H](CCCCN)C(=O)N[C@@H](CCCCN)C(=O)N[C@@H](CCC(N)=O)C(=O)N[C@@H](CCCNC(=N)N)C(=O)N[C@@H](CCC(=O)O)C(=O)N[C@@H](CCC(N)=O)C(=O)N[C@@H](C)C(=O)N[C@@H](CCC(=O)O)C(=O)N[C@H](C(=O)N[C@@H](CC(N)=O)C(=O)NC1(C(=O)N[C@@H](CCC(N)=O)C(=O)N[C@H](C(=O)N[C@@H](CC(C)C)C(=O)N[C@@H](C)C(=O)N[C@@H](CCC(N)=O)C(=O)N[C@H](C(N)=O)C(C)C)[C@@H](C)CC)CCNCC1)[C@@H](C)O)[C@@H](C)CC)[C@@H](C)CC)C(C)C)C(C)C [compound 57] (Ac-IVLSLD[dV]PIKLK([γGlu-C16 diacid])KILLEQEKQKKQREQAETN[Api]QILAQV-NH2) | −34% | −25% | −2% | >24 h |
| 104% | – | 0/nd ^ % | 10 % I | > 250000 pM | 98% | 101% | 350 pM | – | CCCCC(=O)N[C@H](C(=O)N[C@@H](CC(C)C)C(=O)N[C@@H](CO)C(=O)N[C@@H](CC(C)C)C(=O)N[C@@H](CC(=O)O)C(=O)N[C@@H](C(=O)N1CCC[C@H]1C(=O)N[C@H](C(=O)N[C@@H](CCCCN)C(=O)N[C@@H](CC(C)C)C(=O)N[C@@H](CCCCNC(=O)CC[C@H](NC(=O)CCCCCCCCCCCCCCC(=O)O)C(=O)O)C(=O)N[C@@H](CCCCN)C(=O)N[C@H](C(=O)N[C@@H](CC(C)C)C(=O)N[C@@H](CC(C)C)C(=O)N[C@@H](CCC(=O)O)C(=O)N[C@@H](CCC(N)=O)C(=O)N[C@@H](CCC(=O)O)C(=O)N[C@@H](CCCCN)C(=O)N[C@@H](CCC(N)=O)C(=O)N[C@@H](CCCCN)C(=O)N[C@@H](CCCCN)C(=O)N[C@@H](CCC(N)=O)C(=O)N[C@@H](CCCNC(=N)N)C(=O)N[C@@H](CCC(=O)O)C(=O)N[C@@H](CCC(N)=O)C(=O)N[C@@H](C)C(=O)N[C@@H](CCC(=O)O)C(=O)N[C@H](C(=O)N[C@@H](CC(N)=O)C(=O)NC(C)(C)C(=O)N[C@@H](CCC(N)=O)C(=O)N[C@H](C(=O)N[C@@H](CC(C)C)C(=O)N[C@@H](C)C(=O)N[C@@H](CCC(N)=O)C(=O)N[C@H](C(N)=O)C(C)C)[C@@H](C)CC)[C@@H](C)O)[C@@H](C)CC)[C@@H](C)CC)C(C)C)C(C)C [compound 80] (Pentanoyl-VLSLD[dV]PIKLK([γGlu-C16 diacid])KILLEQEKQKKQREQAETN[Aib]QILAQV-NH2) | – | – | – | – |
| 110% | – | 0/nd ^ % | 18 % I | > 250000 pM | 108% | 93% | 150 pM | 79% | CC[C@H](C)[C@H](NC(C)=O)C(=O)N[C@H](C(=O)N[C@@H](CC(C)C)C(=O)N[C@@H](CO)C(=O)N[C@@H](CC(C)C)C(=O)N[C@@H](CC(=O)O)C(=O)N[C@@H](C(=O)N1CCC[C@H]1C(=O)N[C@H](C(=O)N[C@@H](CCCCN)C(=O)N[C@@H](CC(C)C)C(=O)N[C@@H](CCCCNC(=O)CC[C@H](NC(=O)CCCCCCCCCCCCCCCCC(=O)O)C(=O)O)C(=O)N[C@@H](CCCCN)C(=O)N[C@H](C(=O)N[C@@H](CC(C)C)C(=O)N[C@@H](CC(C)C)C(=O)N[C@@H](CCC(=O)O)C(=O)N[C@@H](CCC(N)=O)C(=O)N[C@@H](CCC(=O)O)C(=O)N[C@@H](CCCCN)C(=O)N[C@@H](CCC(N)=O)C(=O)N[C@@H](CCCCN)C(=O)N[C@@H](CCCCN)C(=O)N[C@@H](CCC(N)=O)C(=O)N[C@@H](CCCNC(=N)N)C(=O)N[C@@H](CCC(=O)O)C(=O)N[C@@H](CCC(N)=O)C(=O)N[C@@H](C)C(=O)N[C@@H](CCC(=O)O)C(=O)N[C@H](C(=O)N[C@@H](CC(N)=O)C(=O)NC(C)(C)C(=O)N[C@@H](CCC(N)=O)C(=O)N[C@H](C(=O)N[C@@H](CC(C)C)C(=O)N[C@@H](C)C(=O)N[C@@H](CCC(N)=O)C(=O)N[C@H](C(N)=O)C(C)C)[C@@H](C)CC)[C@@H](C)O)[C@@H](C)CC)[C@@H](C)CC)C(C)C)C(C)C [compound 125] (Ac-IVLSLD[dV]PIKLK([γGlu-C18 diacid])KILLEQEKQKKQREQAETN[Aib]QILAQV-NH2) | −25% | −16% | 1% | 22 h |

Source: patent US20260001928A1 (CORTERIA PHARMACEUTICALS, priority 2022, published 2026)
